Values of other authors, collected in patent US9155308B2, “Agricultural pesticide formulation” (priority 2013, dated 2015).

Conditions: based on animal studies

Question: With `Cc1c(COC(=O)[C@@H]2[C@H](/C=C(\Cl)C(F)(F)F)C2(C)C)cccc1-c1ccccc1` (racemic) [bifenthrin, Bifenthrin] as the molecule, how does the “chronic reference dose (RfD)” value (daily exposure) read?
Answer: 0.013 mg/kg bodyweight/day

Question: What about the “acute reference dose (RfD)” value (one-time exposure) of the same molecule?
Answer: 0.328 mg/kg bodyweight/day
